# In PubChem BioAssay (NCI):
#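 All cell lines were grown in 96-well plates and treated with compound for 48 hours. TGI: total growth inhibition.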
# Key:
# Experiment in all cases: NCI anticancer screen, dose series, 48 h
# MDA-N = tested on: MDA-N
# SK-MEL-28 melanoma = tested on: SK-MEL-28 melanoma
# MDA-MB-231 breast = tested on: MDA-MB-231 breast
# UO-31 renal = tested on: UO-31 renal
# MDA-MB-435 = tested on: MDA-MB-435
# RPMI-8226 leukemia = tested on: RPMI-8226 leukemia
# A498 renal = tested on: A498 renal
# SNB-75 CNS = tested on: SNB-75 CNS
# MCF7 breast = tested on: MCF7 breast
# OVCAR-5 ovarian = tested on: OVCAR-5 ovarian
# HCT-15 colon = tested on: HCT-15 colon
# K-562 leukemia = tested on: K-562 leukemia
# UACC-257 melanoma = tested on: UACC-257 melanoma
# 786-0 renal = tested on: 786-0 renal
# SK-MEL-2 melanoma = tested on: SK-MEL-2 melanoma
# SF-539 CNS = tested on: SF-539 CNS
# OVCAR-4 ovarian = tested on: OVCAR-4 ovarian
# SNB-19 CNS = tested on: SNB-19 CNS
# OVCAR-3 ovarian = tested on: OVCAR-3 ovarian
# SK-MEL-5 melanoma = tested on: SK-MEL-5 melanoma
# SF-268 CNS = tested on: SF-268 CNS
# SN12C renal = tested on: SN12C renal
# OVCAR-8 ovarian = tested on: OVCAR-8 ovarian
# A549 NSCLC = tested on: A549 NSCLC
# NCI-H226 lung = tested on: NCI-H226 lung
# KM12 colon = tested on: KM12 colon
# NCI-H23 lung = tested on: NCI-H23 lung
# HS 578T breast = tested on: HS 578T breast
# PC-3 prostate = tested on: PC-3 prostate
# NCI-H522 lung = tested on: NCI-H522 lung
# MOLT-4 leukemia = tested on: MOLT-4 leukemia
# SW-620 colon = tested on: SW-620 colon
# HCC-2998 colon = tested on: HCC-2998 colon
# IGROV1 ovarian = tested on: IGROV1 ovarian
# MALME-3M melanoma = tested on: MALME-3M melanoma
# CCRF-CEM leukemia = tested on: CCRF-CEM leukemia
# HOP-62 NSCLC = tested on: HOP-62 NSCLC
# TK-10 renal = tested on: TK-10 renal
# UACC-62 melanoma = tested on: UACC-62 melanoma
# M14 melanoma = tested on: M14 melanoma
# EKVX NSCLC = tested on: EKVX NSCLC
# NCI/ADR-RES ovarian = tested on: NCI/ADR-RES ovarian
# SF-295 CNS = tested on: SF-295 CNS
# HT29 colon = tested on: HT29 colon
# U251 CNS = tested on: U251 CNS
# HCT-116 colon = tested on: HCT-116 colon
# COLO 205 colon = tested on: COLO 205 colon
# SK-OV-3 ovarian = tested on: SK-OV-3 ovarian
# LOX IMVI melanoma = tested on: LOX IMVI melanoma
# RXF 393 renal = tested on: RXF 393 renal
# T-47D breast = tested on: T-47D breast
# SR leukemia = tested on: SR leukemia
# NCI-H460 lung = tested on: NCI-H460 lung
# DU-145 prostate = tested on: DU-145 prostate
# BT-549 breast = tested on: BT-549 breast
# ACHN renal = tested on: ACHN renal
# HOP-92 NSCLC = tested on: HOP-92 NSCLC
# CAKI-1 renal = tested on: CAKI-1 renal
# HL-60(TB) leukemia = tested on: HL-60(TB) leukemia
compound,measurement,setting,value
O=C(/C=C/c1ccc(OCc2ccccc2)cc1)NCc1ccc(C(=O)NCc2ccccc2)cc1,TGI,MDA-N,> 100 µM
same,TGI,SK-MEL-28 melanoma,> 100 µM
same,TGI,MDA-MB-231 breast,> 100 µM
same,TGI,UO-31 renal,> 100 µM
same,TGI,MDA-MB-435,> 100 µM
same,TGI,RPMI-8226 leukemia,> 100 µM
same,TGI,A498 renal,> 100 µM
same,TGI,SNB-75 CNS,> 100 µM
same,TGI,MCF7 breast,> 100 µM
same,TGI,OVCAR-5 ovarian,> 100 µM
same,TGI,HCT-15 colon,> 100 µM
same,TGI,K-562 leukemia,> 100 µM
same,TGI,UACC-257 melanoma,> 100 µM
same,TGI,786-0 renal,> 100 µM
same,TGI,SK-MEL-2 melanoma,> 100 µM
same,TGI,SF-539 CNS,> 100 µM
same,TGI,OVCAR-4 ovarian,> 100 µM
same,TGI,SNB-19 CNS,> 100 µM
same,TGI,OVCAR-3 ovarian,> 100 µM
same,TGI,SK-MEL-5 melanoma,> 100 µM
same,TGI,SF-268 CNS,> 100 µM
same,TGI,SN12C renal,> 100 µM
same,TGI,OVCAR-8 ovarian,> 100 µM
same,TGI,A549 NSCLC,> 100 µM
same,TGI,NCI-H226 lung,> 100 µM
same,TGI,KM12 colon,> 100 µM
same,TGI,NCI-H23 lung,> 100 µM
same,TGI,HS 578T breast,> 100 µM
same,TGI,PC-3 prostate,> 100 µM
same,TGI,NCI-H522 lung,> 100 µM
same,TGI,MOLT-4 leukemia,> 100 µM
same,TGI,SW-620 colon,> 100 µM
same,TGI,HCC-2998 colon,> 100 µM
same,TGI,IGROV1 ovarian,> 100 µM
same,TGI,MALME-3M melanoma,> 100 µM
same,TGI,CCRF-CEM leukemia,> 100 µM
same,TGI,HOP-62 NSCLC,> 100 µM
same,TGI,TK-10 renal,> 100 µM
same,TGI,UACC-62 melanoma,> 100 µM
same,TGI,M14 melanoma,> 100 µM
same,TGI,EKVX NSCLC,> 100 µM
same,TGI,NCI/ADR-RES ovarian,> 100 µM
same,TGI,SF-295 CNS,> 100 µM
same,TGI,HT29 colon,> 100 µM
same,TGI,U251 CNS,> 100 µM
same,TGI,HCT-116 colon,> 100 µM
same,TGI,COLO 205 colon,> 100 µM
same,TGI,SK-OV-3 ovarian,> 100 µM
same,TGI,LOX IMVI melanoma,> 100 µM
same,TGI,RXF 393 renal,> 100 µM
same,TGI,T-47D breast,> 100 µM
same,TGI,SR leukemia,> 100 µM
same,TGI,NCI-H460 lung,> 100 µM
same,TGI,DU-145 prostate,> 100 µM
same,TGI,BT-549 breast,> 100 µM
same,TGI,ACHN renal,> 100 µM
same,TGI,HOP-92 NSCLC,> 100 µM
same,TGI,CAKI-1 renal,> 100 µM
C=CCOC(=O)c1c(C)n([O-])c2cc(Cl)c(Cl)cc2[n+]1=O,TGI,HL-60(TB) leukemia,48.7 µM
same,TGI,MDA-N,45.6 µM
same,TGI,SK-MEL-28 melanoma,30.3 µM
same,TGI,MDA-MB-231 breast,55 µM
same,TGI,UO-31 renal,59.8 µM
same,TGI,MDA-MB-435,41.2 µM
same,TGI,RPMI-8226 leukemia,33.9 µM
same,TGI,A498 renal,62.6 µM
same,TGI,MCF7 breast,60.8 µM
same,TGI,OVCAR-5 ovarian,75.7 µM
same,TGI,HCT-15 colon,31.7 µM
same,TGI,K-562 leukemia,> 100 µM
same,TGI,UACC-257 melanoma,37.9 µM
same,TGI,786-0 renal,60.1 µM
same,TGI,SK-MEL-2 melanoma,39.4 µM
same,TGI,SF-539 CNS,45.7 µM
same,TGI,OVCAR-4 ovarian,19.1 µM
same,TGI,SNB-19 CNS,> 100 µM
same,TGI,OVCAR-3 ovarian,40.8 µM
same,TGI,SK-MEL-5 melanoma,36.8 µM
same,TGI,SF-268 CNS,29.5 µM
same,TGI,SN12C renal,54.7 µM
same,TGI,OVCAR-8 ovarian,41.9 µM
same,TGI,A549 NSCLC,87.7 µM
same,TGI,NCI-H226 lung,38.9 µM
same,TGI,KM12 colon,84.7 µM
same,TGI,NCI-H23 lung,30.3 µM
same,TGI,HS 578T breast,65.9 µM
same,TGI,PC-3 prostate,> 100 µM
same,TGI,NCI-H522 lung,28.1 µM
same,TGI,MOLT-4 leukemia,54.4 µM
same,TGI,HCC-2998 colon,26.5 µM
same,TGI,IGROV1 ovarian,22.8 µM
same,TGI,MALME-3M melanoma,70.9 µM
same,TGI,CCRF-CEM leukemia,45.9 µM
same,TGI,HOP-62 NSCLC,57.6 µM
same,TGI,TK-10 renal,87.2 µM
same,TGI,UACC-62 melanoma,41.3 µM
same,TGI,M14 melanoma,38.8 µM
same,TGI,EKVX NSCLC,41.1 µM
same,TGI,NCI/ADR-RES ovarian,46.9 µM
same,TGI,SF-295 CNS,86.9 µM
same,TGI,HT29 colon,36.8 µM
same,TGI,U251 CNS,> 100 µM
same,TGI,HCT-116 colon,39 µM
same,TGI,COLO 205 colon,32.6 µM
same,TGI,SK-OV-3 ovarian,59.8 µM
same,TGI,LOX IMVI melanoma,32.9 µM
same,TGI,T-47D breast,49.3 µM
same,TGI,SR leukemia,13.1 µM
same,TGI,NCI-H460 lung,42.3 µM
same,TGI,DU-145 prostate,> 100 µM
same,TGI,BT-549 breast,75.3 µM
same,TGI,ACHN renal,50.9 µM
same,TGI,HOP-92 NSCLC,53.1 µM
same,TGI,CAKI-1 renal,39.6 µM
